Laboratory results: US20240316000A1, “METHODS OF TREATMENT” (DIFFUSION PHARMACEUTICALS LLC, priority 2021, published 2024)

Columns and labels:
[1] = tested on: healthy volunteers exercising at altitude; assay: Safety assessment in the altitude study; assay type: in vivo, human; settings: all doses tested; no serious adverse events reported
Excerpt: Adverse Events (AE), and Serious Adverse Events (SAE) will be reported per protocols. Laboratory values (complete blood count [CBC], basic metabolic panel [BMP] HIV, HBsAg, HCVAb), vital signs (blood pressure, heart rate, respiratory rate, temperature), and oxygen saturation (SpO2) will be monitored.

[2] = tested on: healthy volunteers exercising at altitude; assay: Crossover study in healthy volunteers exercising at simulated altitude of 15,000 feet (arterial blood gas, VO2 max, SpO2, lactate); assay type: in vivo, human
Excerpt: This is a double-blind, randomized, placebo-controlled crossover study designed to investigate TSC's effects on oxygen enhancement using an experimental model to induce hypoxia in study participants. The primary endpoints measured in this study are maximal oxygen consumption and partial pressure of arterial blood oxygen in normal healthy volunteers subjected to incremental levels of physical exertion while exposed to hypoxic and hypobaric conditions at a simulated altitude of 15,000 feet above sea level. The secondary endpoints are to assess the effect of TSC on SpO2 and lactate.
A total of 30 healthy volunteers are enrolled in the trial with each subject serving as their own control by completing the experiment twice in a random, blinded order in the same day with a 3-hour rest and wash out period between experimental intervals. During one ascent, study subjects receive intravenous (IV) placebo administration and the other ascent the same subject receives a single IV dose of TSC at one of three dose levels (0.5 mg/kg, 1.5 mg/kg, or 2.5 mg/kg).
Primary analyses will be based on sequence matched changes in median PaO2 and median VO2 following a single administration of TSC versus placebo in subjects exposed to simulated altitude and undergoing exercise. This is a crossover design, repeated measures study where each subject will serve as their own control. Each subject will be randomized to a TSC dose and will also be randomized to their altitude exposure sequence on the day of testing.

[3] = Absorption after intramuscular injection of TSC with gamma cyclodextrin; assay type: in vivo; settings: injected intramuscularly with gamma cyclodextrin; rats
[4] = Solubility of TSC in water with gamma-cyclodextrin; assay type: physicochemical
healthy volunteers = assay: Safety assessment in the tcpO2 study (adverse events, vital signs); assay type: in vivo, human
Description: Vital signs during the treatment and evaluation period are assessed at 10, 30, and 60 minutes post-study drug dosing. Adverse events are assessed throughout.

hemorrhagic shock = settings: after hemorrhagic shock in rats; cited from earlier work
[5] = 2.5 mg/kg, end of exercise and 10 minutes post-exercise
[6] = change last exercise to 10-minutes post-exercise, 2.5 mg/kg vs other TSC doses and placebo
[7] = last exercise value minus baseline, 2.5 mg/kg vs other TSC doses and placebo
[8] = last exercise value, 2.5 mg/kg vs other TSC doses and placebo

Compound: CC(/C=C/C=C(\C)C(=O)[O-])=C\C=C\C=C(C)\C=C\C=C(/C)C(=O)O.[Na+] [TSC, trans sodium crocetinate]
- Safety and tolerability [1]: safe and well tolerated at all doses tested
- Post-exercise recovery (pH, lactate, SpO2 and other markers) ([2]; 2.5 mg/kg, 10 minutes post-exercise versus last exercise measurements): positive effect on post-exercise recovery
- Blood pH following exercise under hypoxic conditions [2, 5]: increase in pH
- Lactate following exercise under hypoxic conditions [2, 5]: decrease in lactate
- Effects on pH at the end of the exercise period versus baseline, compared to placebo ([2]; 2.5 mg/kg, p<0.1): significantly different
- Intra-day maximal oxygen consumption tests ([2]; 0.5, 1.5, 2.5 mg/kg IV): no observed changes
- Partial pressure of arterial blood oxygen ([2]; 0.5, 1.5, 2.5 mg/kg IV): no observed changes
- pH, least square mean ([2]; 10-minute post-exercise change from baseline (smallest reduction), 2.5 mg/kg vs other TSC doses and placebo, p=0.01 vs placebo): highest least square mean value
- HCO3, least square mean ([2]; 10-minute post-exercise change from baseline, 2.5 mg/kg vs other TSC doses and placebo): highest least square mean value
- Lactic acid, least square mean ([2]; 10-minute post-exercise change from baseline, 2.5 mg/kg vs other TSC doses and placebo, p<0.05 vs 0.5 mg/kg): lowest least square mean value
- Oxygen saturation, least square mean ([2]; 10-minute post-exercise change from baseline, 2.5 mg/kg vs other TSC doses and placebo, p<0.05 vs 0.5 mg/kg, p=0.01 vs placebo): highest least square mean value
- PAO2, least square mean ([2]; 10-minute post-exercise change from baseline, 2.5 mg/kg vs other TSC doses and placebo, separates statistically from 0.5 mg/kg): highest least square mean value
- pH, change ([2]; change last exercise to 10-minutes post-exercise, 2.5 mg/kg): smallest change
- Lactic acid, least square mean ([2]; change last exercise to 10-minutes post-exercise, 2.5 mg/kg and 1.5 mg/kg vs other TSC doses and placebo): lowest least square mean value
- HCO3, least square mean [2, 6]: highest least square mean value
- Oxygen saturation, least square mean [2, 6]: highest least square mean value
- PACO2, least square mean [2, 6]: highest least square mean value
- PAO2, least square mean [2, 6]: highest least square mean value
- PAO2, least square mean ([2]; last exercise value minus baseline, 0.5 mg/kg TSC dose and placebo vs other TSC doses): lowest least square mean value
- HCO3, least square mean [2, 7]: highest least square mean value
- Oxygen saturation, least square mean [2, 7]: lowest least square mean value
- VO2 maximum, least square mean [2, 7]: lowest least square mean value
- pH, least square mean ([2]; last exercise value minus baseline, 2.5 mg/kg vs other TSC doses and placebo, separates statistically from 0.5 mg/kg): highest least square mean value
- Lactic acid, least square mean ([2]; last exercise value minus baseline, 2.5 mg/kg vs other TSC doses and placebo, trend lower with dose): lowest least square mean value
- PACO2, least square mean [2, 8]: highest least square mean value
- pH, least square mean [2, 8]: highest least square mean value
- Lactic acid, least square mean ([2]; last exercise value, 2.5 mg/kg vs other TSC doses and placebo, p<0.1 vs 0.5 mg/kg, trend lower with dose): lowest least square mean value
- Oxygen saturation, least square mean ([2]; last exercise value, 2.5 mg/kg vs other TSC doses and placebo, p<0.1 vs 1.5 mg/kg): lowest least square mean value
- HCO3, least square mean ([2]; last exercise value, 2.5 mg/kg vs other TSC doses and placebo, separates statistically from 0.5 mg/kg): highest least square mean value
- PAO2, least square mean ([2]; last exercise value, 2.5 mg/kg vs other TSC doses and placebo, separates statistically from 1.5 mg/kg): lowest least square mean value
- Sequence effect in subjects who received TSC in the first ascent of the day ([2]; pH change from baseline, p<0.05 placebo first vs second): carry-over
- Oxygen saturation, least square mean ([2]; post-exercise value, 2.5 mg/kg vs other TSC doses and placebo): highest least square mean value
- PACO2, least square mean ([2]; post-exercise value, 2.5 mg/kg vs other TSC doses and placebo, p<0.05 vs 0.5 mg/kg): highest least square mean value
- Lactic acid, least square mean ([2]; post-exercise value, 2.5 mg/kg vs other TSC doses and placebo, p<0.05 vs 0.5 mg/kg, p=0.01 vs placebo): lowest least square mean value
- pH, least square mean ([2]; post-exercise value, 2.5 mg/kg vs other TSC doses and placebo, separates from 0.5 mg/kg, p=0.01 vs placebo): highest least square mean value
- HCO3, least square mean ([2]; post-exercise value, 2.5 mg/kg vs other TSC doses and placebo, separates statistically from 0.5 mg/kg): highest least square mean value
- Absorption into the blood stream [3]: Absorption is quick
- TSC content of aqueous solutions ([4]; TSC and gamma-cyclodextrin): ≤ 44 milligrams of TSC per ml of solution
- TSC content of solutions ([4]; formulated with a cyclodextrin and mannitol): over 20 mg TSC/ml of solution
- Serious adverse events or withdrawals (healthy volunteers; 30 subjects): No subjects experience a serious adverse event
- Number of treatment-emergent adverse events determined to be drug-related (healthy volunteers; of nine events, all mild in intensity): five
- Subjects with treatment-emergent adverse events (healthy volunteers; seven of the 30 subjects (TSC and placebo cohorts), nine events overall): 23.3%
- Safety and tolerability (healthy volunteers; single IV bolus 0.5-2.5 mg/kg): safe and well tolerated
- Serious adverse events or dose-limiting toxicities (healthy volunteers; up to and including the 2.5 mg/kg iv dose): no serious adverse events or dose-limiting toxicities
- Whole-body oxygen consumption (hemorrhagic shock): increase whole-body oxygen consumption
